Legend:
[1] = system: Erysiphe graminis forma specialis tritici; assay: Activity against powdery mildew of wheat; format: in vivo; details: wheat seedlings "Kanzler", sprayed 24 hours before inoculation, evaluated after 7 days
Description: (§1) Evaluation is carried out by determining the infected leaf areas in percent. These percentages are converted into efficacies. The efficacy (W) is calculated as follows using Abbot's formula: […]
(§2) α corresponds to the fungal infection of the treated plants in % and β corresponds to the fungal infection of the untreated (control) plants in % An efficacy of 0 means that the infection level of the treated plants corresponds to that of the untreated control plants; an efficacy of 100 means that the treated plants were not infected.
(§3) Colby formula: E=x+y−x·y/100
Activity Against Powdery Mildew of Wheat
The test plants were subsequently kept in a greenhouse at 20 to 24° C. and 60 to 90% relative atmospheric humidity. After 7 days, the extent of the mildew development was determined visually in % infection of the total leaf area.

Puccinia recondita = assay: Curative activity against Puccinia recondita on wheat (wheat leaf rust); format: in vivo; details: wheat seedlings "Kanzler", sprayed 1 day after infection, evaluated after 7 days
Description: as §1, §2, §3
Curative Activity Against Puccinia recondita on Wheat (Wheat Leaf Rust) Leaves of potted wheat seedlings of the variety “Kanzler” were dusted with spores of leaf rust (Puccinia recondita). […] During this time, the spores germinated and the germinal tubes penetrated into the leaf tissue. […] After the spray coating had dried on, the test plants were cultivated in a greenhouse at from 20 to 22° C. and from 65 to 70% of relative atmospheric humidity for 7 days. Thereafter, the extent of rust fungus development on the leaves was determined.

O=C(Nc1ccccc1-c1ccc(F)cc1)c1cccnc1Cl [Compound I.1]
Efficacy in % of the untreated control ([1]; 4 ppm in the spray liquor): 0% | Efficacy in % of the untreated control ([1]; 16 ppm in the spray liquor): 0% | Efficacy in % of the untreated control (Puccinia recondita; 16 ppm in the spray liquor): 0% | Efficacy in % of the untreated control (Puccinia recondita; 63 ppm in the spray liquor): 0%

O=C(Nc1ccccc1-c1ccc(Cl)cc1)c1cccnc1Cl [Compound I.2]
Efficacy in % of the untreated control ([1]; 1 ppm in the spray liquor): 0% | Efficacy in % of the untreated control ([1]; 4 ppm in the spray liquor): 0% | Efficacy in % of the untreated control (Puccinia recondita; 16 ppm in the spray liquor): 0%

CCCCCCCCCCCCCN1CC(C)OC(C)C1 (stereo not shown) [Compound IIc, tridemorph]
Efficacy in % of the untreated control ([1]; 4 ppm in the spray liquor): 0% | Efficacy in % of the untreated control ([1]; 16 ppm in the spray liquor): 20% | Efficacy in % of the untreated control (Puccinia recondita; 63 ppm in the spray liquor): 0%

CC(Cc1ccc(C(C)(C)C)cc1)CN1CCCCC1 (stereo not shown) [Compound IIb, fenpropidin]
Efficacy in % of the untreated control ([1]; 1 ppm in the spray liquor): 0% | Efficacy in % of the untreated control ([1]; 4 ppm in the spray liquor): 30% | Efficacy in % of the untreated control (Puccinia recondita; 16 ppm in the spray liquor): 20%

CC(Cc1ccc(C(C)(C)C)cc1)CN1C[C@@H](C)O[C@@H](C)C1 (stereo partly shown) [Compound IIa, fenpropimorph]
Efficacy in % of the untreated control ([1]; 1 ppm in the spray liquor): 0% | Efficacy in % of the untreated control ([1]; 4 ppm in the spray liquor): 20% | Efficacy in % of the untreated control (Puccinia recondita; 16 ppm in the spray liquor): 20%
